# Patent US20020137929A1, “1 - (3-heterocyclylphenyl) isothiourea, -isourea, -guanidine and -amidine herbicidal agents” (Intellectual Property Department, BASF Aktiengesellschaft, priority 1998, published 2002)
# Key:
# CASOB (Sicklepod) = assay: Postemergence herbicidal evaluation; format: in vivo, Cassia obtusifolia; conditions: postemergence
# Summary of the method: (§1)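 ~2-wk seedlings; postemergence spray, 40 psi; vehicle 1:1 acetone:water + 0.5% Tween 20; rate ≈0.0156–0.500 kg/ha; greenhouse hold; scored 4–5 wk after treatment, 0–9 scale vs control; repeat tests averaged.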
# GALAP (Galium) = assay: Postemergence herbicidal evaluation; format: in vivo, Galium aparine; conditions: postemergence
# Summary of the method: as §1
# ZEAMX (Corn, Field) [1] = assay: Postemergence herbicidal evaluation; format: in vivo, Zea mays; conditions: postemergence
# Summary of the method: as §1
# AMBEL (Ragweed, Common) = assay: Preemergence herbicidal evaluation; format: in vivo, Ambrosia artemisifolia; conditions: rated 4-5 weeks after treatment, rating scale 0-9
# Summary of the method: (§2)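 Rating at 4–5 wk post-spray on a 0–9 visual scale vs control. Application: aqueous acetone, ~0.0156–0.500 kg/ha, to soil surface after seeding, preemergence.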
# [2] = test system: CHEAL (Lambsquarters, Common); assay: Preemergence herbicidal evaluation; format: in vivo, Chenopodium album; conditions: rated 4-5 weeks after treatment, rating scale 0-9
# Summary of the method: as §2
# [3] = test system: IPOHE (Morningglory, Ivyleaf); assay: Preemergence herbicidal evaluation; format: in vivo, Ipomoea hederacea; conditions: rated 4-5 weeks after treatment, rating scale 0-9
# Summary of the method: as §2
# ORYSAT (Rice, Tebonnet) = assay: Preemergence herbicidal evaluation; format: in vivo, Oryza sativa, (L.) Tebonnet; conditions: rated 4-5 weeks after treatment, rating scale 0-9
# Summary of the method: as §2
# [4] = test system: TRZAWR (Wheat, Winter, cv Riband); assay: Preemergence herbicidal evaluation; format: in vivo, Triticum aestivum; conditions: rated 4-5 weeks after treatment, rating scale 0-9
# Summary of the method: as §2
# ZEAMX (Corn, Field) [5] = assay: Preemergence herbicidal evaluation; format: in vivo, Zea mays; conditions: rated 4-5 weeks after treatment, rating scale 0-9
# Summary of the method: as §2
# [6] = test system: ECHORC (Watergrass (Calif.)); assay: Preemergence weed control under flooded paddy conditions; format: in vivo, Echinochloa oryzoides; conditions: rated 3-4 weeks after treatment
# Summary of the method: (§3)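 Silt loam, seeds in top 0.5 cm; flood held 1.5-3 cm; test cpd as acetone/water 50/50 into flood water, ~0.0313-0.500 kg/ha a.i.; greenhouse 3-4 wk; visual 0-9 score vs control.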
# CYPIR (Rice Flatsedge) = assay: as above; format: in vivo, Cyperus iria; conditions: rated 3-4 weeks after treatment
# Summary of the method: as §3
# CYPSE (Flatsedge) = assay: as above; format: in vivo, Cyperus serotinus; conditions: rated 3-4 weeks after treatment
# Summary of the method: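 Herbicidal effect is scored visually on a 0-9 scale against an untreated control, three to four weeks after compounds are pipetted into the flood water (1.5 to 3 cm deep) over seeds planted in silt loam at 0.5 cm depth. Rates: about 0.0313 to 0.500 kg/ha.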
compound,measurement,setting,value
C=C1SC(=Nc2cc(-n3c(=O)cc(C(F)(F)F)n(C)c3=O)c(F)cc2Cl)N(CC(=O)OCC)C1=O [Compound 154],Herbicidal rating CASOB,CASOB (Sicklepod); rate 0.0156 kg/ha,0.0
same,Herbicidal rating CASOB,CASOB (Sicklepod); rate 0.0313 kg/ha,0.0
same,Herbicidal rating CASOB,CASOB (Sicklepod); rate 0.0625 kg/ha,1.0
same,Herbicidal rating GALAP,GALAP (Galium); rate 0.0156 kg/ha,3.0
same,Herbicidal rating GALAP,GALAP (Galium); rate 0.0313 kg/ha,3.0
same,Herbicidal rating GALAP,GALAP (Galium); rate 0.0625 kg/ha,4.0
same,Herbicidal rating ZEAMX,"ZEAMX (Corn, Field) [1]; rate 0.0156 kg/ha",4.0
same,Herbicidal rating ZEAMX,"ZEAMX (Corn, Field) [1]; rate 0.0313 kg/ha",4.0
same,Herbicidal rating ZEAMX,"ZEAMX (Corn, Field) [1]; rate 0.0625 kg/ha",5.0
same,Preemergence herbicidal rating AMBEL,"AMBEL (Ragweed, Common); rate 0.0156 kg/ha",3.0
same,Preemergence herbicidal rating AMBEL,"AMBEL (Ragweed, Common); rate 0.0313 kg/ha",5.0
same,Preemergence herbicidal rating AMBEL,"AMBEL (Ragweed, Common); rate 0.0625 kg/ha",9.0
same,Preemergence herbicidal rating AMBEL,"AMBEL (Ragweed, Common); rate 0.1250 kg/ha",9.0
same,Preemergence herbicidal rating AMBEL,"AMBEL (Ragweed, Common); rate 0.2500 kg/ha",9.0
same,Preemergence herbicidal rating CHEAL,[2]; rate 0.0156 kg/ha,9.0
same,Preemergence herbicidal rating CHEAL,[2]; rate 0.0313 kg/ha,9.0
same,Preemergence herbicidal rating CHEAL,[2]; rate 0.0625 kg/ha,9.0
same,Preemergence herbicidal rating CHEAL,[2]; rate 0.1250 kg/ha,9.0
same,Preemergence herbicidal rating CHEAL,[2]; rate 0.2500 kg/ha,9.0
same,Preemergence herbicidal rating IPOHE,[3]; rate 0.0156 kg/ha,0.0
same,Preemergence herbicidal rating IPOHE,[3]; rate 0.0313 kg/ha,9.0
same,Preemergence herbicidal rating IPOHE,[3]; rate 0.0625 kg/ha,9.0
same,Preemergence herbicidal rating IPOHE,[3]; rate 0.1250 kg/ha,9.0
same,Preemergence herbicidal rating IPOHE,[3]; rate 0.2500 kg/ha,9.0
same,Preemergence herbicidal rating ORYSAT,"ORYSAT (Rice, Tebonnet); rate 0.0156 kg/ha",3.0
same,Preemergence herbicidal rating ORYSAT,"ORYSAT (Rice, Tebonnet); rate 0.0313 kg/ha",4.0
same,Preemergence herbicidal rating ORYSAT,"ORYSAT (Rice, Tebonnet); rate 0.0625 kg/ha",8.0
same,Preemergence herbicidal rating ORYSAT,"ORYSAT (Rice, Tebonnet); rate 0.1250 kg/ha",9.0
same,Preemergence herbicidal rating ORYSAT,"ORYSAT (Rice, Tebonnet); rate 0.2500 kg/ha",9.0
same,Preemergence herbicidal rating TRZAWR,[4]; rate 0.0156 kg/ha,0.0
same,Preemergence herbicidal rating TRZAWR,[4]; rate 0.0313 kg/ha,2.0
same,Preemergence herbicidal rating TRZAWR,[4]; rate 0.0625 kg/ha,8.0
same,Preemergence herbicidal rating TRZAWR,[4]; rate 0.1250 kg/ha,8.0
same,Preemergence herbicidal rating TRZAWR,[4]; rate 0.2500 kg/ha,9.0
same,Preemergence herbicidal rating ZEAMX,"ZEAMX (Corn, Field) [5]; rate 0.0156 kg/ha",5.0
same,Preemergence herbicidal rating ZEAMX,"ZEAMX (Corn, Field) [5]; rate 0.0313 kg/ha",7.0
same,Preemergence herbicidal rating ZEAMX,"ZEAMX (Corn, Field) [5]; rate 0.0625 kg/ha",8.0
same,Preemergence herbicidal rating ZEAMX,"ZEAMX (Corn, Field) [5]; rate 0.1250 kg/ha",9.0
same,Preemergence herbicidal rating ZEAMX,"ZEAMX (Corn, Field) [5]; rate 0.2500 kg/ha",9.0
same,"herbicidal effect rating, ECHORC",[6]; 0.0313 kg/ha,3.0
same,"herbicidal effect rating, ECHORC",[6]; 0.0625 kg/ha,4.0
same,"herbicidal effect rating, ECHORC",[6]; 0.1250 kg/ha,7.0
same,"herbicidal effect rating, ECHORC",[6]; 0.2500 kg/ha,7.0
same,"herbicidal effect rating, CYPIR",CYPIR (Rice Flatsedge); 0.0313 kg/ha,2.0
same,"herbicidal effect rating, CYPIR",CYPIR (Rice Flatsedge); 0.0625 kg/ha,3.0
same,"herbicidal effect rating, CYPIR",CYPIR (Rice Flatsedge); 0.1250 kg/ha,4.0
same,"herbicidal effect rating, CYPIR",CYPIR (Rice Flatsedge); 0.2500 kg/ha,6.0
same,"herbicidal effect rating, CYPSE",CYPSE (Flatsedge); 0.0313 kg/ha,4.0
same,"herbicidal effect rating, CYPSE",CYPSE (Flatsedge); 0.0625 kg/ha,6.0
same,"herbicidal effect rating, CYPSE",CYPSE (Flatsedge); 0.1250 kg/ha,9.0
same,"herbicidal effect rating, CYPSE",CYPSE (Flatsedge); 0.2500 kg/ha,9.0
